Patent US20150018418A1, “COMPOSITIONS AND METHODS FOR PROLONGING PREGNANCY” (priority 2013, published 2015)

Experiments:
[1] = test system: pregnant human female in PTL (uterine contractions); details: Example 1
Description: A pregnant person, at 29.5 weeks gestation, presented to the hospital in PTL during their first pregnancy. […] The patient's parent experienced PTL during one of their pregnancies, leading to premature birth of the patient at 30 weeks gestation. The patient's sibling also had experienced PTL with one of their pregnancies resulting in premature birth at 36 weeks gestation.
The patient was diagnosed with PTL and started on nifedipine 20 mg by mouth every 6 hours for tocolysis and magnesium sulfate 6 g as an intravenous infusion over 30 minutes followed by 2 g per hour for the next 12 hours for fetal neuroprotection. […] A course of steroids were also given for fetal lung maturation.
The patient then enrolled in a study conducted in advancement of the present disclosure and began therapy with gabapentin 300 mg, 3×/day (900 mg/day total). […] The following day the patient was discharged home only on gabapentin 300 mg, 3×/day and their previous outpatient dose of atenolol at 50 mg a day. […] They were instructed to increased their gabapentin dose to 600 mg, 3×/day.
Gabapentin was not administered while the patient was in the hospital. […] The patient was discharged.
Such contractions are the hallmark of preterm labor, which is known to result in premature birth in 60% of cases.

[2] = test system: pregnant human in PTL (uterine contractions, uterine pressure); test: Example 2: gabapentin maintenance therapy in a patient with preterm labor (case report); assay type: in vivo
Description: The cervix was dilated at 3.5-4 cm and regular uterine contractions were occurring at 11/hour. […] The uterine contractions slowly diminished and were completely resolved 14 hours after tocolysis was initiated.
The cervix was still 3.5-4 cm dilated at the time of enrollment. By the evening of the next day, the subject began feeling “uncomfortable” with a “pressure” feeling in their uterus. They were instructed the next day to increase their bedtime gabapentin dose to 600 mg and to continue 300 mg in the morning and in the afternoon. […] Two days later the subject reported feeling some recurrent uterine pressure especially noticeable for the hour before each gabapentin dose was taken. Gabapentin was increased to 600 mg, 3×/day and by the following day all of the pressure symptoms had resolved. The subject remained asymptomatic.
They continued on gabapentin 600 mg, 3×/day and remained asymptomatic. Three days later the subject noticed that their “water broke”. They were admitted to the hospital and confirmed to have preterm premature rupture of membranes (PPROM) with cervix still dilated to 4 cm. Gabapentin was continued at 600 mg, 3×/day. The subject remained asymptomatic throughout the next day; however, on the morning of the following day the subject began having regular uterine contractions about every 3-5 minutes and their cervix had now dilated to 7cm.
This discovery of gabapentin maintenance therapy resolving recurrent uterine contractions and pressure symptoms leading to a prolongation of pregnancy and preserving fetal survival is accordingly highly valuable to the public. Its value can be recognized at least in part because uterine contractions are an essential component of PTL, which precedes 40-50% of premature births (<37 weeks gestation) and as described above, premature birth occurs in 11.5% of all live births in the US, is the number one cause of neonatal mortality, and is responsible for half of the long-term neurological impairments in children. […]

[3] = Serum half-life and clearance of gabapentin in humans; assay type: in vivo; details: expected from the serum half-life
Source text: The patient was discharged.

[4] = test system: preterm labor / premature birth; details: cited from earlier work
[5] = nifedipine 20 mg by mouth every 6 hours, with i.v. magnesium sulfate for fetal neuroprotection

## COC(=O)C1=C(C)NC(C)=C(C(=O)OC)C1c1ccccc1[N+](=O)[O-] [nifedipine]
[1]; [5]
  time to complete resolution of uterine contractions after tocolysis was initiated: 12 h
[2]; [5]
  time to complete resolution of uterine contractions after tocolysis was initiated: 14 h

## NCC1(CC(=O)O)CCCCC1 [gabapentin, (1-aminomethyl)cyclohexaneacetic acid]
[1]; dose increased from 300 mg to 600 mg 3x/day, after the second 600 mg dose
  recurrent uterine cramping and uterine contraction feelings: fully resolved
[1]; gabapentin 300 mg 3x/day, resolved that same day
  side effects after the first dose: mild dizziness
[1]; gabapentin 600 mg 3x/day
  side effects from the higher dose: did not experience any side effects
  time remained stable without any uterine cramping: 16 days
[1]; gabapentin discontinued for 8 days
  outcome after discontinuation of maintenance therapy: associated with the IUFD
[2]; bedtime dose increased to 600 mg, 300 mg morning and afternoon, following morning
  uncomfortable pressure feeling in uterus: fully resolved
[2]; gabapentin increased to 600 mg 3x/day, by the following day
  recurrent uterine pressure symptoms: resolved
[3]
  time to be fully cleared after discontinuation: about 30 hours
[4]; Fujii H, et al. Neurology 2013
  use during pregnancy and premature birth: associated with an increase in premature birth

## O=S(=O)([O-])[O-].[Mg+2] [magnesium sulfate]
[1]; recurrent contractions, intravenous magnesium sulfate infusion 2 g/hour, gabapentin not administered
  time to resolution of all uterine contractions: ≤ 5 h

## CC(C)(C)NCC(O)c1cc(O)cc(O)c1 (stereo not shown) [terbutaline]
[4]; patients with recent or resolved PTL, versus placebo
  maintenance tocolysis for prolonging pregnancy: no more effective than maintenance placebo therapy
